# From ChEMBL document CHEMBL5107996, “Design and evaluation of achiral, non-atropisomeric 4-(aminomethyl)phthalazin-1(2H)-one derivatives as novel PRMT5/MTA inhibitors” (Bioorg Med Chem, 2022)
# Legend:
# [1] = Metabolic stability in human hepatocytes assessed as intrinsic clearance; format: ADME, cell-based, Hepatocyte; conditions: read-out: CLH
# HepG2 = assay: Antiproliferative activity against human HepG2 cells assessed as inhibition of cell viability measured after 120 hrs CellTiter-Glo assay; format: functional, cell-based; conditions: HepG2, 120 h
# [2] = target: T1, Protein arginine N-methyltransferase 5 (Homo sapiens, UniProt O14744); assay: Inhibition of PRMT5 (unknown origin) using H2A and 3H-SAM as substrates preincubated for 20 mins followed by substrate addition incubated for 60 mins in presence of MTA by radiometric HotSpot assay
# T1 sequence (O14744 whole entry): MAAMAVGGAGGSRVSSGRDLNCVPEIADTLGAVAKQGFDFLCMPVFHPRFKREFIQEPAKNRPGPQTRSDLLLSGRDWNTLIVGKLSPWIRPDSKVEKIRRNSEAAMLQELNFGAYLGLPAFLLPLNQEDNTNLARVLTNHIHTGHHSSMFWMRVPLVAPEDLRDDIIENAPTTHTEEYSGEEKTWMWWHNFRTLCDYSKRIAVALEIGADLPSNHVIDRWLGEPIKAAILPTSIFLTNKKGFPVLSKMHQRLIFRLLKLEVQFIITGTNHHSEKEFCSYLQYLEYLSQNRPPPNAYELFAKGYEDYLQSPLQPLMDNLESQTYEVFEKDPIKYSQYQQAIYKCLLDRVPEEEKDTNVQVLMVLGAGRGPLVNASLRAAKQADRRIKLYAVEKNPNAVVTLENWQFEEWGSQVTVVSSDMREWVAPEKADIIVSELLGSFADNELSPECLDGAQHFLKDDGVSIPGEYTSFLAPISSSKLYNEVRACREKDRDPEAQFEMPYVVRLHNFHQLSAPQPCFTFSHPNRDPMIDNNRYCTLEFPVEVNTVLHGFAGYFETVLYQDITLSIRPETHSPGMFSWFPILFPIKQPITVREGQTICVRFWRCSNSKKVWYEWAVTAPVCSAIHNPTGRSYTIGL
# [3] = target: T1, Protein arginine N-methyltransferase 5; assay: Inhibition of PRMT5 methyltransferase activity in human HCT-116 cells expressing wild type MTAP assessed as inhibition of PRMT5-mediated SDMA modification level incubated for 96 hrs by In-cell Western analysis; format: cell-based
# [4] = Ratio IC50 for antiproliferative activity against human HCT-116 cells expressing wild type MTAP to IC50 for antiproliferative activity against MTAP knockout human HCT-116 cells
# HCT-116 [5] = assay: Antiproliferative activity against MTAP knockout human HCT-116 cells assessed as cell viability after 10 days by CellTiter-Glo assay; format: functional, cell-based; conditions: HCT-116, 240 h
# [6] = target: T1, Protein arginine N-methyltransferase 5; assay: Inhibition of PRMT5 methyltransferase activity in MTAP knockout human HCT-116 cells assessed as inhibition of PRMT5-mediated SDMA modification level incubated for 96 hrs by In-cell Western analysis; format: cell-based
# HCT-116 [7] = assay: Antiproliferative activity against human HCT-116 cells expressing wild type MTAP assessed as cell viability after 10 days by CellTiter-Glo assay; format: functional, cell-based; conditions: HCT-116, 240 h
Compound,CLint scaled [1],IC50 (HepG2),IC50 [2],IC50 [3],IC50 (HCT-116 [5]),IC50 [6],IC50 (HCT-116 [7]),Ratio IC50 [4]
Cn1ncc(-c2ccc3c(=O)[nH]nc(CN)c3c2)c1-c1c(F)c(Cl)cc(OC2CC2)c1C#N,< 18 mL/min/kg,6600 nM,,,,,,
Cn1ncc(-c2ccc3c(=O)[nH]nc(CN)c3c2)c1-c1sc2ccccc2c1C#N,,18300 nM,37 nM,> 1000 nM,,,,100
Cn1ncc(-c2cc([C@@H]3CCCO3)c3c(=O)[nH]nc(CN)c3c2)c1-c1sc2ccccc2c1C#N,43 mL/min/kg,,,> 1000 nM,711 nM,390 nM,2050 nM,3
Cn1ncc(-c2cnc3c(=O)[nH]nc(CN)c3c2)c1-c1sc2ccccc2c1C#N,,,1350 nM,,3510 nM,,,
Cn1ncc(-c2ccc3c(=O)[nH]nc(CN)c3c2)c1-c1sc2cccnc2c1C#N,,,650 nM,,1540 nM,,,
Cn1ncc(-c2ccc3c(=O)[nH]nc(CN)c3c2)c1-c1sc2ccncc2c1C#N,,,768 nM,,2940 nM,,,
Cn1ncc(-c2ccc3c(=O)[nH]nc(CN)c3c2)c1-c1sc2cnccc2c1C#N,,,223 nM,,1470 nM,,,

# More lines, in order of falling IC50 (HCT-116 [5]), values ahead:
CLint scaled [1],IC50 (HepG2),IC50 [2],IC50 [3],IC50 (HCT-116 [5]),IC50 [6],IC50 (HCT-116 [7]),Compound,Ratio IC50 [4]
,,99 nM,,315 nM,,,Cn1ncc(-c2ccc3c(=O)[nH]nc(CN)c3c2)c1-c1sc2ncccc2c1C#N,
,,,,250 nM,,,Cn1ncc(-c2ccc3c(=O)[nH]nc(CN)c3n2)c1-c1sc2ccccc2c1C#N,
< 18 mL/min/kg,,,> 1000 nM,188 nM,262 nM,4350 nM,Cn1ncc(-c2cc(O)c3c(=O)[nH]nc(CN)c3c2)c1-c1sc2ccccc2c1C#N,23
< 18 mL/min/kg,,,618 nM,150 nM,112 nM,637 nM,CCOc1cc(-c2cnn(C)c2-c2sc3ccccc3c2C#N)cc2c(CN)n[nH]c(=O)c12,4
71 mL/min/kg,,,> 1000 nM,52 nM,17 nM,734 nM,Cn1ncc(-c2cc(Cl)c3c(=O)[nH]nc(CN)c3c2)c1-c1sc2ccccc2c1C#N,14
44 mL/min/kg,,,759 nM,37 nM,25 nM,2030 nM,Cn1ncc(-c2cc(C(F)F)c3c(=O)[nH]nc(CN)c3c2)c1-c1sc2ccccc2c1C#N,55
27 mL/min/kg,,,> 1000 nM,30 nM,17 nM,1470 nM,Cc1cc(-c2cnn(C)c2-c2sc3ccccc3c2C#N)cc2c(CN)n[nH]c(=O)c12,49
66 mL/min/kg,490 nM,,267 nM,19 nM,5 nM,51 nM,COCc1cc(-c2cnn(C)c2-c2sc3ccccc3c2C#N)cc2c(CN)n[nH]c(=O)c12,3
39 mL/min/kg,290 nM,,174 nM,16 nM,4 nM,29 nM,Cn1ncc(-c2cc([C@H]3CCCO3)c3c(=O)[nH]nc(CN)c3c2)c1-c1sc2ccccc2c1C#N,2
